The record followed here is patent US10406207B2, “Peptide conjugates of GLP-1 receptor agonists and gastrin and their use” (priority 2010, dated 2019).

One data set in a line: in vivo. Also noted: species or system C57Bl mice. The note with it: mouse, sc, 100 nmol/kg; for half-life: C57Bl. As for the experimental part:
Two C57Bl mice were given a single subcutaneous dose of 100 nmol/kg of each peptide. […] At each time point, samples from two mice were taken. Plasma samples were analyzed after solid phase extraction (SPE) by liquid chromatography mass spectrometry (LC-MS/MS).

Another data set deals with T1, human GLP-1 R (Homo sapiens, UniProt P43220).
T1 construct: expressed in transfected cells
As to the kind of experiment: Human GLP-1 receptor efficacy assay (cAMP induction, FlashPlate). The format is cell-based. The note with it: read-out: hGLP-1 R EC50. The method, then:
On the day of analysis, growth medium was removed and the cells were washed once with 200 μl Tyrode buffer [Tyrode's Salts (9.6 g/l), 10 mM HEPES, pH 7.4]. […] The reaction was stopped by addition of 25 μl 0.5 M HCl and incubated on ice for 60 min.

In another data set the target is T2, mouse CCK-B R (Mus musculus, UniProt P56481).
T2 construct: expressed in transfected cells
T2 sequence (P56481 1-453): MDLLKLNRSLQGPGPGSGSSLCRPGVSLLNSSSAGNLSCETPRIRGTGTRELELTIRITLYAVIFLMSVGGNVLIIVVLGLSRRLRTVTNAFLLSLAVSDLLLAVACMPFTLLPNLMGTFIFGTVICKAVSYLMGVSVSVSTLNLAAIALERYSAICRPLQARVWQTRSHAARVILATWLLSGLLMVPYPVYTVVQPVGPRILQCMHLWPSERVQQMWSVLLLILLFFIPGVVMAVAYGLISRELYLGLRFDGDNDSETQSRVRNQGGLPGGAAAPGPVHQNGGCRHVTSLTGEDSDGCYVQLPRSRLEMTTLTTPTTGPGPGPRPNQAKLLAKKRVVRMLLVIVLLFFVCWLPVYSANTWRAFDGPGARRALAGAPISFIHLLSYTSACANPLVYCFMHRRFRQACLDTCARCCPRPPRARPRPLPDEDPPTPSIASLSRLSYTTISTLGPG
Nature of the data set: Mouse CCK-B receptor efficacy assay (AlphaScreen SureFire p-ERK). In kind it is cell-based. The following applies: Table 1; HEK293 cells expressing mouse CCK-B R, p-ERK; read-out: mCCK-B R EC50. An excerpt: CCK-B Receptor (CCK-B R) Efficacy Assay:
To test binding and activation of CCK-B R we produced stable cell lines expressing one of the human or mouse CCK receptors in a manner similar to that for production of the hGLP-1 R cell lines were generated (vide supra). In brief, we used HEK293 cells for transfection of the cDNA for human or mouse CCK-A R or CCK-B R [hCCK-A R (gene identity: L19315), hCCK-B R (NM_176875), mCCK-A R (NM_009827) and mCCK-B R (NM_007627)] all cloned into the transfection plasmid pIRESneo2dNGFR. The cells were grown according to standard protocol in growth medium and transfected with the plasmids using Lipofectamin (Invitrogen). The cells stably expressing CCK receptors were selected using G418 in the growth medium (only cells that have taken up and incorporated the cDNA expression plasmid survive) and propagated. Stocks of cells were frozen for later use.
In vitro effects of peptide conjugates of the invention were estimated by measuring p-ERK (using the AlphaScreen™ SureFire p-ERK assay) in HEK293 cells stably expressing the human and mouse CCK-B R (high-affinity Gastrin receptor), respectively. The Gastrin receptor efficacy assays (AlphaScreen™ SureFire p-ERK assay) were performed as follows:
The CCK-B R expressing cells in question were seeded at 20,000 cells/well in 100 μl growth medium [DMEM, 10% FCS, Penicillin (100 IU/ml), Streptomycin (100 μg/ml)] in a 96-well plate coated with poly-D-lysine. The cells were incubated in an incubator (37° C., 5% […]) for two days.
The growth medium was changed to 80 μl of serum-free medium [DMEM, Penicillin (100 IU/ml), Streptomycin (100 μg/ml)] per well, and incubation of the cells was continued for 19 hours in the incubator (37° C., 5% CO2).
• 1. After 19 hours, 20 μl of serum-free medium containing one of 5 different concentrations of peptide conjugate was added (performed in triplicate for each concentration), and the cells were incubated for 5 min. at room temperature. • 2. The stimulation medium was discarded by quickly turning the plate upside down, and 60 μl 1× lysis buffer (from the SureFire assay kit) was added per well. • 3. The plate was shaken on a plate-shaker for 5 min and then placed on ice. • 4. SureFire P-ERK assay: 4 μl of each supernatant was transferred to a 384 well proxiplate (Perkin Elmer). • 5. 4 μl of each of the two control lysates (unstimulated and stimulated) were added to the proxiplate in duplicate. • 6. […] 7 μl of the latter reaction buffer+activation buffer+beads per well were added in the proxiplate, the mix being resuspended carefully before addition to the wells. • 7. The plate was incubated for 2 hours in a dark box in a 22° C. incubator. • 8. The plate was analyzed on an Envision™ light-emission plate reader (Perkin-Elmer) using the appropriate reading program (Perkin-Elmer).

The next data set has as its target T3, human CCK-B R (Homo sapiens, UniProt P32239).
T3 construct: expressed in transfected cells
T3 sequence (P32239 1-447): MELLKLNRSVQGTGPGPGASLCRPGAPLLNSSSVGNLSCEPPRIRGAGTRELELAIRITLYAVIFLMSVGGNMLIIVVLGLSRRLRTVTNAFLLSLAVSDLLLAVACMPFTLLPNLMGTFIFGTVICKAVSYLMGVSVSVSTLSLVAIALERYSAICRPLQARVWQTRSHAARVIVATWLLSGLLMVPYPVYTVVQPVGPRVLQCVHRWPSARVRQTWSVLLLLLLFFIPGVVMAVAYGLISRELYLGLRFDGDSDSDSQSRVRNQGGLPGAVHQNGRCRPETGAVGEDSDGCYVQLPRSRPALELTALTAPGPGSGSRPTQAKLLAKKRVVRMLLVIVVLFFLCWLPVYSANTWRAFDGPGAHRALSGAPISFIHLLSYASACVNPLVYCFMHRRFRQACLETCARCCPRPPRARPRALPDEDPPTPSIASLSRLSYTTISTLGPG
As to the kind of experiment: Human CCK-B receptor efficacy assay (AlphaScreen SureFire p-ERK). The following applies: Table 1; HEK293 cells expressing human CCK-B R, p-ERK; read-out: hCCK-B R EC50. In kind it is cell-based.

Where [1] appears, read: Table 1, HEK293 cells expressing human GLP-1 R, cAMP.

Like-named read-outs stand apart in the source and are kept apart here. Bridge positions count the residues as written; N and C are the ends. Square brackets hold non-standard residues; d marks the D form. Peptide text beside a SMILES is read from it. AEEA = NCCOCCOCC(=O)O

T1 sequence (P43220 24-463): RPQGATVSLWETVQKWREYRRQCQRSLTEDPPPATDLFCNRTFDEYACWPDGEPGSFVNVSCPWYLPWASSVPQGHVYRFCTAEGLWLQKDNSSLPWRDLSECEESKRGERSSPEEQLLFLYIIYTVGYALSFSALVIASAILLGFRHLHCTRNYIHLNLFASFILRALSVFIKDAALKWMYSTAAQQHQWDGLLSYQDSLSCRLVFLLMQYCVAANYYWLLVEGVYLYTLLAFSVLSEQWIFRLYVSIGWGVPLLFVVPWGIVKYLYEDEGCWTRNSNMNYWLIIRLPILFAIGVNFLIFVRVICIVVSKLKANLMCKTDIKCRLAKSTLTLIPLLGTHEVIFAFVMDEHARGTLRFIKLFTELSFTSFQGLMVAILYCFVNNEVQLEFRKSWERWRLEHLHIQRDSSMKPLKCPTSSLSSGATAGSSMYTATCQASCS

Turning to `CC[C@H](C)[C@H](NC(=O)[C@H](Cc1ccccc1)NC(=O)[C@H](CC(C)C)NC(=O)[C@H](CCCNC(=N)N)NC(=O)[C@@H](NC(=O)[C@H](C)NC(=O)[C@H](CCC(=O)O)NC(=O)[C@H](CCC(=O)O)NC(=O)[C@H](CCC(=O)O)NC(=O)[C@H](CC(C)C)NC(=O)[C@H](Cc1ccc(O)cc1)NC(=O)[C@H](CCCCN)NC(=O)[C@H](CO)NC(=O)[C@H](CC(C)C)NC(=O)[C@H](CC(=O)O)NC(=O)[C@H](CO)NC(=O)[C@@H](NC(=O)[C@H](Cc1ccccc1)NC(=O)[C@@H](NC(=O)CNC(=O)[C@H](CCC(=O)O)NC(=O)CNC(=O)[C@@H](N)Cc1c[nH]cn1)[C@@H](C)O)[C@@H](C)O)C(C)C)C(=O)N[C@@H](CCC(=O)O)C(=O)N[C@@H](Cc1ccccc1)C(=O)N[C@@H](CC(C)C)C(=O)N[C@@H](CCCCN)C(=O)NCCOCCOCC(=O)NCCOCCOCC(=O)N[C@@H](Cc1ccc(O)cc1)C(=O)NCC(=O)N[C@@H](Cc1c[nH]c2ccccc12)C(=O)N[C@@H](CC(C)C)C(=O)N[C@@H](CC(=O)O)C(=O)N[C@@H](Cc1ccccc1)C(N)=O` [Compound 77, [Tyr13,Leu14,Phe25]Exendin-4(1-27)-Peg3-Peg3-[Leu4]Gastrin6] (H-HGEGTFTSDLSKYLEEEAVRLFIEFLK[AEEA][AEEA]YGWLDF-NH2), in the data set “in vivo”, the half-life (in general, how long it takes for the measured level to halve) is 3.1 h; the “Half-life and exposure (in words)” value is “superior to the rest”. On human GLP-1 R (Table 2), the EC50 – broadly, the concentration at which the effect is half-maximal – came to 0.044 nM.
Regarding `CC[C@H](C)[C@H](NC(=O)[C@H](Cc1ccccc1)NC(=O)[C@H](CC(C)C)NC(=O)[C@@H]1CCCCNC(=O)CC[C@H](NC(=O)[C@H](CCC(=O)O)NC(=O)[C@H](CCSC)NC(=O)[C@H](CCC(N)=O)NC(=O)[C@H](CCCCN)NC(=O)[C@H](CO)NC(=O)[C@H](CC(C)C)NC(=O)[C@H](CC(=O)O)NC(=O)[C@H](CO)NC(=O)[C@@H](NC(=O)[C@H](Cc2ccccc2)NC(=O)[C@@H](NC(=O)CNC(=O)[C@H](CCC(=O)O)NC(=O)CNC(=O)[C@@H](N)Cc2c[nH]cn2)[C@@H](C)O)[C@@H](C)O)C(=O)N[C@@H](CCC(=O)O)C(=O)N[C@@H](C)C(=O)N[C@@H](C(C)C)C(=O)N1)C(=O)N[C@@H](CCC(=O)O)C(=O)N[C@@H](Cc1c[nH]c2ccccc12)C(=O)N[C@@H](CC(C)C)C(=O)N[C@@H](CCCCN)C(=O)N[C@@H](CC(N)=O)C(=O)NCCOCCOCC(=O)NCCOCCOCC(=O)N[C@@H](Cc1ccc(O)cc1)C(=O)NCC(=O)N[C@@H](Cc1c[nH]c2ccccc12)C(=O)N[C@@H](CC(C)C)C(=O)N[C@@H](CC(=O)O)C(=O)N[C@@H](Cc1ccccc1)C(N)=O` [Compound 79, Side chain-cyclo([Glu16,Lys20]Exendin-4(1-28)-Peg3-Peg3-[Leu4]Gastrin6] (H-HGEGTFTSDLSKQMEEEAVKLFIEWLKN[AEEA][AEEA]YGWLDF-NH2; lactam 16-20), in “in vivo”, the half-life is 1.5 h. Besides, on human GLP-1 R (Table 2), the EC50 worked out at 0.026 nM.
For “H-HAEGTFTSDVSSYLEGQAAKEFIAWLVKGRQGPWLEEEEEAYGWLDF-NH2 [Compound 37, GLP-1(7-36)-[Gln1,Leu15]Gastrin17]”, the EC50 on mouse CCK-B R came out at 73.1 nM; on human GLP-1 R (setting [1]), 0.145 nM; at human GLP-1 R (Table 3) it was 0.03 nM; at human CCK-B R, 25.9 nM.
Taken in the same sequence, the figures for “H-HAEGTFTSDVSSYLEGQAAKEFIAWLVKGRSKKQGPWLEEEEEAYGWLDF-NH2 [Compound 40, GLP-1(7-36)-SKK-[Gln1,Leu15]Gastrin17]” were 58.6 nM, 0.116 nM, 0.031 nM and 15.6 nM.
Take “H-HAEGTFTSDVSSYLEGQAAKEFIAWLVKGRAAAQGPWLEEEEEAYGWLDF-NH2 [Compound 39, GLP-1(7-36)-AAA-[Gln1,Leu15]Gastrin17]”: the EC50 at mouse CCK-B R came to 54.1 nM; at human GLP-1 R (setting [1]) it was 0.114 nM; at human GLP-1 R (Table 3), 0.034 nM; at human CCK-B R, 18.8 nM.
Take “H-HAEGTFTSDVSSYLEGQAAKEFIAWLVKGRKQGPWLEEEEEAYGWLDF-NH2 [Compound 38, GLP-1(7-36)-K-[Gln1,Leu15]Gastrin17]”: the EC50 at mouse CCK-B R was 114 nM; at human GLP-1 R (setting [1]), 0.0842 nM; on human GLP-1 R (Table 3) it was 0.03 nM; on human CCK-B R it was 77.3 nM.
Regarding `CC[C@H](C)[C@H](NC(=O)[C@H](Cc1ccccc1)NC(=O)[C@H](CCC(=O)O)NC(=O)[C@H](CCCCN)NC(=O)[C@H](C)NC(=O)[C@H](C)NC(=O)[C@H](CCC(N)=O)NC(=O)CNC(=O)[C@H](CCC(=O)O)NC(=O)[C@H](CC(C)C)NC(=O)[C@H](Cc1ccc(O)cc1)NC(=O)[C@H](CO)NC(=O)[C@H](CO)NC(=O)[C@@H](NC(=O)[C@H](CC(=O)O)NC(=O)[C@H](CO)NC(=O)[C@@H](NC(=O)[C@H](Cc1ccccc1)NC(=O)[C@@H](NC(=O)CNC(=O)[C@H](CCC(=O)O)NC(=O)[C@H](C)NC(=O)[C@@H](N)Cc1c[nH]cn1)[C@@H](C)O)[C@@H](C)O)C(C)C)C(=O)N[C@@H](C)C(=O)N[C@@H](Cc1c[nH]c2ccccc12)C(=O)N[C@@H](CC(C)C)C(=O)N[C@H](C(=O)N[C@@H](CCCCN)C(=O)NCC(=O)N[C@@H](CCCNC(=N)N)C(=O)NCCOCCOCC(=O)NCCOCCOCC(=O)N[C@@H](CCC(N)=O)C(=O)NCC(=O)N1CCC[C@H]1C(=O)N[C@@H](Cc1c[nH]c2ccccc12)C(=O)N[C@@H](CC(C)C)C(=O)N[C@@H](CCC(=O)O)C(=O)N[C@@H](CCC(=O)O)C(=O)N[C@@H](CCC(=O)O)C(=O)N[C@@H](CCC(=O)O)C(=O)N[C@@H](CCC(=O)O)C(=O)N[C@@H](C)C(=O)N[C@@H](Cc1ccc(O)cc1)C(=O)NCC(=O)N[C@@H](Cc1c[nH]c2ccccc12)C(=O)N[C@@H](CC(C)C)C(=O)N[C@@H](CC(=O)O)C(=O)N[C@@H](Cc1ccccc1)C(N)=O)C(C)C` [Compound 42, GLP-1(7-36)-Peg3-Peg3-[Gln1,Leu15]Gastrin17], the EC50 at mouse CCK-B R was 58.3 nM; at human CCK-B R, 8.2 nM.
